Data on one molecule can be found in patent US20120190707A1, “SELECTIVE INHIBITORS OF AKT AND METHODS OF USING SAME” (priority 2008, published 2012).

For series [1], the system named is AKT. The experiment in a line: AKT phosphorylation and expression by western blot in PC3 prostate tumor cells. The format is cell-based. To be noted: PC3, 5 and 10 micro.M. As for the experimental part: (A) MeWo melanoma cells growing in 60 mm plates were treated with the indicated concentration of the inhibitor for 4 h before proteins were prepared for western blot analysis using the indicated antibodies. Level of beta.actin was monitored as a control for protein loading. (B) Experiment was performed as indicated in panel A, except that cells were harvested after 24 h for analysis of cell death using trypan blue staining. (C) Melanoma (MeWo), prostate cancer (PC3) and breast cancer (MCF7) cells were treated with BI-69A11 at the indicated concentrations; levels of AKT phosphorylation or expression were assessed 4 h later. The level of beta.actin used as a control for protein loading. (D) Experiment was performed as indicated in panel C, except that cells were harvested after 4 h for analysis of cell death using trypan blue staining.
For western blotting techniques, cells were lysed in RIPA buffer containing 50 mM TrisHCl pH7.4, 150 mM NaCl, 2 mM EDTA, 1% NP-40, 0.1% SDS. The protein concentration was estimated using the Coomassie Protein assay kit (Thermo Scientific, Rockford, Ill., USA). Equal concentrations of cell lysate (30-50 ug) were resolved on a 10% polyacrylamide gel and transferred onto Nitrocellulose membrane (GE Amersham). Membranes were blocked for 1-2 hours in either 3% BSA or 5% nonfat dried milk in Tris-buffered saline containing 0.05% Tween 20. […]

Series [2] has as its system melanocytes. The experiment in a line: AKT phosphorylation and toxicity in cultured melanocytes. The class given is cell-based. The settings on record: data not shown.
Series [3] has as its system AKT. Description: pAKT473 and total AKT by western analysis in UACC 903 (PTEN-) cells. The format is cell-based, human. As for the experimental part:
(§1) FIG. 6 describes the effect of BI-69A11 on phosphorylation and total levels of AKT in UACC 903 (PTEN−) cells. (A) UACC903 and the modified clone 29-1 (PTEN+) cells were exposed to 10 micro.M BI-69A11 and 50 micro.M LY294002 (a PI3K inhibitor) and the levels of pAKT473 and total AKT determined by western analysis. […] (SF=Serum Free). (B) BI-69A11 inhibits PRAS40 phosphorylation. UACC903 melanoma cells or 29-1 cells (PTEN+) were subjected to treatment with IGF-1 (20 ng/mL) and the level of PRAS40 phosphorylation was assessed. […] The cells were collected, lysed and levels of pPRAS40 and total PRAS40 determined by western analysis. (C) AKT association with HSP90 is inhibited by BI-69A11. Human melanoma cells were treated with BI-69A11 (10.micro.M) or DMSO control for 4 h, followed by protein preparation and immunoprecipitation using antibodies to pan-AKT. MG132 treatment, when used, initiated 1 h prior to treatment and lasted up to the preparation of proteins (total of 5 h). The right panel depicts analysis of total lysates.
The term “cell lines”, as used herein, unless otherwise indicated, refer to UACC 903 cells and 29-1 cells. The cells were cultured in DMEM, supplemented with 10% FBS and maintained at 37° C. in 5% CO2. Cells were plated to 75% confluency and grown overnight at 37° C. Plates were rinsed twice with a serum-free DMEM medium and the appropriate concentration of the compound was added to the plates. Cells were harvested at different timepoints by scraping (for western blotting) or trypsinization (for cell proliferation assay) where appropriate.
Thus, we set to test the possibility that BI-69A11's ability to inhibit AKT activity may stem from inhibition of AKT protein expression (see data below). We thus assessed whether inhibition of AKT Ser473 phosphorylation coincides with its activity, namely the phosphorylation of known AKT substrates. […] Of note, AKT3, the primarily active isoform of AKT in melanoma cells, effectively phosphorylates PRAS40 (Madhunapantula et al., 2007). […]

In series [4] the test system is AKT. The experiment in a line: pAKT473 and total AKT by western analysis in 29-1 (PTEN+) cells. The class given is cell-based, human. The settings on record: 29-1 cells. As for the experimental part: as §1
The term “cell lines”, as used herein, unless otherwise indicated, refer to UACC 903 cells and 29-1 cells. The cells were cultured in DMEM, supplemented with 10% FBS and maintained at 37° C. in 5% CO2. Cells were plated to 75% confluency and grown overnight at 37° C. […]

Series [5] concerns AKT association with HSP90. The experiment in a line: AKT association with HSP90, immunoprecipitation from melanoma cells. The class given is cell-based, human. The settings on record: 10.micro.M, 4 h. As for the experimental part: as §1
Among cellular proteins implicated in the regulation of AKT levels is the cellular chaperone HSP90. […] Thus we assessed whether association of AKT with HSP90 could be affected by BI-69A11. […]

For series [6], the system named is p53. Description: Levels of HSP90 client protein p53. The class given is cell-based. The settings on record: data not shown. The text has this: Among cellular proteins implicated in the regulation of AKT levels is the cellular chaperone HSP90. Inhibition of HSP90 chaperone function, as commonly achieved by the geldanamycin antibiotic, interferes with the conformational maturation and refolding of its associated proteins, thereby promoting their degradation (Munster et al., 2002; Neckers and Neckers, 2003). […] Thus we assessed whether association of AKT with HSP90 could be affected by BI-69A11. Immunoprecipitation of AKT from melanoma cells identified HSP90 in the immunoprecipitated material. Such association was however abolished following treatment with the BI-69A11 inhibitor (FIG. 6C). […] To this end, we also performed the experiment in the presence of the proteasome inhibitor MG132.

A short description of series [7]: Initial MTD assays. The settings on record: in vivo, 5 mg/kg; data not shown; read-out: dose at which MTD assays revealed toxicity.
In series [8] the test system is ATM-CHK2 axis. Description: ATM and CHK2 phosphorylation (DNA damage response) western analysis in UACC903 cells. The class given is cell-based, human. The protocol:
UACC903 melanoma cells were exposed to vehicle control or 10 μM BI-69A11 for 1 h prior to γ-irradiation (10 Gray). Cells were harvested at the indicated time points post-irradiation and whole cell lysates were subjected to western analysis for phosphorylated ATM, total ATM, phosphorylated Chk2, and PLCγ (as loading control).
FIG. 14 is an assessment of BI-69A11 analogs on Chk2 phosphorylation. UACC903 melanoma cells were exposed to vehicle control, 10 μM BI-69A11, or 10 μM analog for 2 h. Cells were harvested and whole cell lysates were subjected to western analysis for phosphorylated Chk2 and PLCγ (as loading control).
To accomplish this, we g-irradiated vehicle- or BI69A11-treated cells and examined ATM and CHK2 phosphorylation, a well-characterized surrogate of activation (FIG. 13). In vehicle-treated cells, g-irradiation led to the robust phosphorylation of ATM and CHK2.
We next examined the panel of BI-69A11 analogs for their ability to stimulate CHK2 phosphorylation in UACC903 cells (FIG. 14).
For western blotting techniques, cells were lysed in RIPA buffer containing 50 mM TrisHCl pH7.4, 150 mM NaCl, 2 mM EDTA, 1% NP-40, 0.1% SDS. The protein concentration was estimated using the Coomassie Protein assay kit (Thermo Scientific, Rockford, Ill., USA). Equal concentrations of cell lysate (30-50 ug) were resolved on a 10% polyacrylamide gel and transferred onto Nitrocellulose membrane (GE Amersham). Membranes were blocked for 1-2 hours in either 3% BSA or 5% nonfat dried milk in Tris-buffered saline containing 0.05% Tween 20. Primary antibody incubations were performed overnight at 4° C. with shaking. The blots were washed followed by incubation with a secondary antibody incubation for 1 hour at room temperature. After washing, the blots were scanned on the Odyssey Licor scanner at the appropriate wavelength and the image was captured using the Odyssey software.

Entries after “also recorded” stand apart in the source; their conditions may differ.

`O=C(/C=C/c1nc2ccccc2[nH]1)c1c(O)nc2ccc(Cl)cc2c1-c1ccccc1` [Compound 2, (E)-3-(3-(1H-benzo[d]imidazol-2-yl)acryloyl)-6-chloro-4-phenylquinolin-2(1H)-one]: the AKT protein levels result in series [1] is “reduced levels of AKT protein”. Besides, the “basal level of AKT phosphorylation” value in series [1] (4 h) was “effectively inhibited”. In series [2] (coincided with cell death), the “AKT phosphorylation in growth factor-maintained melanocytes” value was “efficient inhibition of AKT phosphorylation”. In series [2] (deprived for 24 h), the “toxic effect on melanocytes deprived of growth factors” value was “no longer elicit toxic effect”. Besides, in series [3] (10 micro.M, UACC903 and 29-1 cells, FIG. 6A), the “levels of pAKT473” value is given as “Reduced levels of pAKT473”. Also, the “levels of total AKT” value is given as “reduced levels of total AKT” in series [3] (903 cells, 10 micro.M, increasing time after treatment) and “reduced levels of total AKT” in series [4] (10 micro.M, increasing time after treatment). Also, the “levels of pAKT Ser473 / AKT phosphorylation” value in series [3] (UACC 903 cells, listed as BI-69A11) was “dose-dependent decrease; also recorded: effectively blocked”. Moreover, in series [4], the AKT phosphorylation result is reported as “limited to no effect”. Moreover, the “AKT association with HSP90” value in series [5] is “abolished”. In addition, the “level of p53” value in series [6] is given as “limited effect”. The MTD in series [7] is 5 mg/kg. Besides, the “ATM and CHK2 phosphorylation in the absence of radiation” value in series [8] (10 μM) is “leads to ATM and CHK2 phosphorylation”. In series [8] (10 μM for 1 h prior to γ-irradiation (10 Gray)), the “ATM or CHK2 phosphorylation following g-irradiation” value was “did not inhibit”. The “CHK2 phosphorylation / activation” value in series [8] (10 μM for 2 h) is “induced the activation of CHK2 to a similar extent”.
